The experiment concerns the target T1, SF9 affinity purified rat FPT (Rattus norvegicus, UniProt Q02293+Q04631).
T1 construct: made in house; host or cells: Sf9 insect cells
Kind of experiment: PFT (FPT) inhibitory activity assay, radiolabeled farnesyl pyrophosphate and biotinyl peptide, streptavidin beads. The following applies: HEPES buffer pH 7.4, 30° C., 30 minutes; read-out: FTase IC50. Format: biochemical. How it is done: The PFT or FPT inhibitory activity of compounds of the present invention were assayed in HEPES buffer (pH 7.4) containing 5 mM potassium phosphate and 20 μM ZnCl2. The solution also contained 5 mM DTT (dithiothreitol), 5 mM MgCl2, and 0.1% PEG 8000. Assays were performed in 96 well plates (Wallec) and employed solutions composed of varying concentrations of a compound of the present invention in 10% DMSO (dimethylsulfoxide). […] After incubation at 30° C. for 30 minutes, the reaction was terminated by diluting the reaction 2.5-fold with a stop buffer containing 1.5 M magnesium acetate, 0.2 M H3PO4, 0.5% BSA (bovine serum albumin), and strepavidin beads (Amersham) at a concentration of 1.3 mg/mL. […] The assay was also carried out without 5 mM potassium phosphate.

For orientation: IC50 means the concentration needed to halve the response being measured.

Structures are written as SMILES.

As for `COC(=O)c1ccccc1S(=O)(=O)NCc1c(O[C@H](Cn2ccnc2)c2ccccc2)ccc2c1CCCC2=O` [Compound 42c], the IC50 stood at 3.5 nM. In the case of `O=C1CCCc2c1ccc(O[C@H](Cn1ccnc1)c1ccccc1)c2CNS(=O)(=O)c1cc(Cl)sc1Cl` [Compound 42d, 2,5-Dichloro-thiophene-3-sulfonic acid [2-((S)-2-imidazol-1-yl-1-phenyl-ethoxy)-5-oxo-5,6,7,8-tetrahydro-naphthalen-1-ylmethyl]-amide; compound with trifluoro-acetic acid] it was 2 nM; in that of `O=C1CCCc2c1ccc(O[C@H](Cn1ccnc1)c1ccccc1)c2CNS(=O)(=O)c1cccc(Cl)c1` [Compound 42e, 3-Chloro-N-[2-((S)-2-imidazol-1-yl-1-phenyl-ethoxy)-5-oxo-5,6,7,8-tetrahydro-naphthalen-1-ylmethyl]-benzenesulfonamide; compound with trifluoro-acetic acid], 1.5 nM; in that of `O=C1CCCc2c1ccc(O[C@H](Cn1ccnc1)c1ccccc1)c2CNS(=O)(=O)c1ccc2ccccc2c1` [Compound 42f, Naphthalene-2-sulfonic acid [2-((S)-2-imidazol-1-yl-1-phenyl-ethoxy)-5-oxo-5,6,7,8-tetrahydro-naphthalen-1-ylmethyl]-amide; compound with trifluoro-acetic acid], 4 nM. The figure for `O=C1CCCc2c1ccc(O[C@H](Cn1ccnc1)c1ccccc1)c2CNS(=O)(=O)Cc1ccccc1` [Compound 42g] is 1.5 nM; for `O=C(NCc1c(O[C@H](Cn2ccnc2)c2ccccc2)ccc2c1CCCC2=O)c1ccccn1` [Compound 42h, Pyridine-2-carboxylic acid [2-((S)-2-imidazol-1-yl-1-phenyl-ethoxy)-5-oxo-5,6,7,8-tetrahydro-naphthalen-1-ylmethyl]-amide] it is 8 nM; for `O=C(NCc1c(O[C@H](Cn2ccnc2)c2ccccc2)ccc2c1CCCC2=O)c1ccccc1` [Compound 42i, N-[2-((S)-2-Imidazol-1-yl-1-phenyl-ethoxy)-5-oxo-5,6,7,8-tetrahydro-naphthalen-1-ylmethyl]-benzamide] it is 1.5 nM. In the case of `CSCC[C@H](NC(=O)OC(C)(C)C)C(=O)NCc1c(O[C@H](Cn2ccnc2)c2ccccc2)ccc2c1CCCC2=O` [Compound 42j, ((S)-1-{[2-((S)-2-Imidazol-1-yl-1-phenyl-ethoxy)-5-oxo-5,6,7,8-tetrahydro-napthalen-1-ylmethyl]-carbamoyl}-3-methylsulfanyl-propyl)-carbamic acid tert-butyl ester] it was 4.4 nM; in that of `CSCC[C@H](N)C(=O)NCc1c(O[C@H](Cn2ccnc2)c2ccccc2)ccc2c1CCCC2=O` [Compound 42k, (S)-2-Amino-N-[2-((S)-2-imidazol-1-yl-1-phenyl-ethoxy)-5-oxo-5,6,7,8-tetrahydro-naphthalen-1-ylmethyl]-4-methylsulfanyl-butyramide], 16 nM. Consider `O=C1CCCc2c1ccc(O[C@H](Cn1ccnc1)c1ccccc1)c2CN1C(=O)c2ccccc2C1=O` [Compound 43, 2-{[2-((1S)-2-imidazolyl-1-phenylethoxy)-5-oxo-6,7,8-trihydronaphenyl]methyl}isoindoline-1,3-dione], for which the IC50 worked out at 1.7 nM. Regarding `O=C1CCCc2c1ccc(O[C@H](Cn1ccnc1)c1ccccc1)c2CCc1ccsc1` [Compound 44a, 6-((S)-2-Imidazol-1-yl-1-phenyl-ethoxy)-5-(2-thiophen-3-yl-ethyl)-3,4-dihydro-2H-naphthalen-1-one], the IC50 worked out at 0.87 nM. As for `O=C1CCCc2c1ccc(O[C@H](Cn1ccnc1)c1ccccc1)c2CCCc1ccccc1` [Compound 44b, 6-((S)-2-Imidazol-1-yl-1-phenyl-ethoxy)-5-(3-phenyl-propyl)-3,4-dihydro-2H-naphthalen-1-one], the IC50 amounted to 3.1 nM. Consider `O=C1CCCc2c1ccc(O[C@H](Cn1ccnc1)c1ccccc1)c2Cc1ccccc1` [Compound 45, 6-((1S)-2-imidazolyl-1-phenylethoxy)-5-benzyl-2,3,4-trihydro-naphthalen-one], for which the IC50 is 2 nM. For the molecule `O=C1CCCc2c1ccc(O[C@H](Cn1ccnc1)c1ccccc1)c2Oc1ccccc1` [Compound 46, 6-((1S)-2-imidazolyl-1-phenylethoxy)-5-phenoxy-2,3,4-trihydronaphthalen-1-one], the IC50 came out at 37 nM. `O=C1CCC(c2cccc(Cl)c2)c2cc(O[C@H](Cn3ccnc3)c3ccccc3)ccc21` (stereo partly drawn) [Compound 47, 6-((1S)-2-Imidazolyl-1-phenylethoxy)-4-(3-chlorophenyl)-2,3,4-trihydronaphthalen-1-one]: the IC50 came out at 2 nM. The figure for `CCCc1c(OC(Cn2ccnc2)c2ccccc2)ccc2c1CCCC2=O` (stereo not shown) [Compound 50, 6-(2-Imidazolyl-1-phenylethoxy)-5-propyl-2,3,4-trihydro-naphthalen-1-one] is 8 nM. As for `C=CCc1c(O[C@H](Cn2ccnc2)c2ccccc2)ccc2c1CCCC2=O` [Compound 51, 6-((1S)-2-Imidazolyl-1-phenylethoxy)-5-prop-2-enyl-2,3,4-trihydronaphthalen-1-one], the IC50 came to 3 nM. In the case of `CCCc1c(O[C@H](Cn2ccnc2)c2ccccc2)ccc2c1CCCC2=O` [Compound 53] it was 5 nM. As for `C=C(C)Cc1c(O[C@H](Cn2ccnc2)c2ccccc2)ccc2c1CCCC2=O` [Compound 54, 6-((1S)-2-Imidazolyl-1-phenylethoxy)-5-(2-methylprop-2-enyl)-2,3,4-trihydronaphthalen-1-one], the IC50 came out at 5 nM. The figure for `CC(C)Cc1c(O[C@H](Cn2ccnc2)c2ccccc2)ccc2c1CCCC2=O` [Compound 55, 6-((1S)-2-Imidazolyl-1-phenylethoxy)-5-(2-methylpropyl)-2,3,4-trihydronaphthalen-1-one] is 1 nM.

As to `C=CCc1c(O[C@H](Cn2ccnc2)c2ccccc2)ccc2c1CCC2=O` [Compound 56], the IC50 worked out at 15 nM.

Consider `CC(C)(Cn1ccnc1)Oc1ccc2c(c1CCc1ccccc1)CCCC2=O` [Compound 58a, 6-[2-(1H-Imidazol-1-yl)-1,1-dimethylethoxy]-5-(2-phenylethyl)-3,4-dihydro-1(2H)-naphthalenone], for which the 50% inhibitory concentration (IC50) was found to be 1.6 nM. Consider `CCCc1c(S[C@H](Cn2ccnc2)c2ccccc2)ccc2c1CCCC2=O` [Compound 62, 6-((1S)-2-imidazolyl-1-phenylethylthio)-5-propyl-2,3,4-trihydronaphthalen-1-one], for which the IC50 was found to be 10 nM.

As for `O=C1CCCc2c1ccc(S[C@H](Cn1ccnc1)c1ccccc1)c2CCc1ccccc1` [Compound 63], the IC50 turned out to be 0.2 nM.

As to `CC(C)S(=O)(=O)Cc1c(O[C@H](Cn2ccnc2)c2cccnc2)ccc2c1CCCC2=O` [Compound 63b, 6-((S)-2-Imidazol-1-yl-1-pyridin-3-yl-ethoxy)-5-(propane-2-sulfonylmethyl)-3,4-dihydro-2H-napthalen-1-one], the IC50 came out at 0.94 nM. The figure for `O=C1CCCc2c1ccc(O[C@H](Cn1ccnc1)c1cccnc1)c2CS(=O)(=O)c1ccccn1` [Compound 63ba, 6-((S)-2-Imidazol-1-yl-1-pyridin-3-yl-ethoxy)-5-(pyridin-2-ylsulfonylmethyl)-3,4-dihydro-2H-napthalen-1-one] is 0.16 nM; for `O=C1CCCc2c1ccc(O[C@H](Cn1ccnc1)c1cccnc1)c2CCc1ccccn1` [Compound 63c] it is 0.3 nM.

For `O=C1CCCc2c1ccc(O[C@H](Cn1ccnc1)c1cccnc1)c2NC(=O)c1nccc2ccccc12` [Compound 63d, Isoquinoline-1-carboxylic acid [2-((S)-2-imidazol-1-yl-1-pyridin-3-yl-ethoxy)-5-oxo-5,6,7,8-tetrahydro-naphthalen-1-yl]-amide], the IC50 was 0.17 nM. Regarding `O=C(Nc1c(O[C@H](Cn2ccnc2)c2cccnc2)ccc2c1CCCC2=O)c1cnccn1` [Compound 63e, Pyrazine-2-carboxylic acid [2-((S)-2-imidazol-1-yl-1-pyridin-3-yl-ethoxy)-5-oxo-5,6,7,8-tetrahydro-naphthalen-1-yl]-amide], the IC50 was found to be 9.7 nM. `O=C1CCCc2c1ccc(O[C@H](Cn1ccnc1)c1cccnc1)c2NC(=O)c1cnnc2ccccc12` [Compound 63f, Cinnoline-4-carboxylic acid [2-((S)-2-imidazol-1-yl-1-pyridin-3-yl-ethoxy)-5-oxo-5,6,7,8-tetrahydro-naphthalen-1-yl]-amide]: the IC50 was 13 nM. The figure for `CC(C)[C@@H](Cn1ccnc1)Oc1ccc2c(c1CS(=O)(=O)C(C)C)CCCC2=O` [Compound 63g, 6-((S)-1-Imidazol-1-ylmethyl-2-methyl-propoxy)-5-(propane-2-sulfonylmethyl)-3,4-dihydro-2H-napthalen-1-one] is 9.5 nM. As for `CC(C)[C@@H](Cn1ccnc1)Oc1ccc2c(c1NC(=O)c1nccc3ccccc13)CCCC2=O` [Compound 63h, Isoquinoline-1-carboxylic acid [2-((S)-1-imidazol-1-ylmethyl-2-methyl-propoxy)-5-oxo-5,6,7,8-tetrahydro-naphthalen-1-yl]-amide], the IC50 came out at 2.5 nM. On to `O=C1CCCc2c1ccc(O[C@H](Cn1ccnc1)c1ccc(F)cc1F)c2CS(=O)(=O)c1ccccn1` [Compound 63j, (S)-6-[-1-(2,4-Difluoro-phenyl)-2-imidazol-1-yl-1-ethoxy]-5-(pyridin-2-ylsulfonylmethyl)-3,4-dihydro-2H-naphthalen-1-one], for which the IC50 was found to be 1.5 nM. Take `CC(C)C(Cn1ccnc1)Oc1ccc2c(c1CS(=O)(=O)c1ccccc1)CCCC2=O` (stereo not shown) [Compound 63l, 6-[1-(1H-Imidazol-1-ylmethyl)-2-methylpropoxy]-5-[(phenylsulfonyl)methyl]-3,4-dihydro-1(2H)-naphthalenone]: the IC50 amounted to 5.5 nM.

The values above are taken from patent publication US6943183B2 (Pfizer Inc, priority 2000, dated 2005).
